Here are results for six molecules from ChEMBL document CHEMBL5724914, “Linking interpersonal differences in gut microbiota composition and drug biotransformation activity” (2024).

Data set [1] in a line: The drug is tested on WLS-039 corresponding to human gut metagenome with ENA study accession number: PRJEB37062 and ENA sample accession number: ERS12561746 for biotransformation under anaerobic condition. The drug concentrations were measured over 9 timepoints collected between 0 and 24 hours of incubation by liquid-chromatography-coupled mass spectrometry (LC–MS). As to conditions: 2 µM.

The conditions of data set [2]: human gut metagenome, 24 h, 2 µM.
Data set [3] can be described thus: The drug is tested on WLS-370 corresponding to human gut metagenome with ENA study accession number: PRJEB37062 and ENA sample accession number: ERS12561793 for biotransformation under anaerobic condition. The drug concentrations were measured over 9 timepoints collected between 0 and 24 hours of incubation by liquid-chromatography-coupled mass spectrometry (LC–MS). Particulars: 2 µM.

Data set [4] can be described thus: The drug is tested on Z-013 corresponding to rabbit gut metagenome with ENA study accession number: PRJEB37062 and ENA sample accession number: ERS12561813 for biotransformation under anaerobic condition. The drug concentrations were measured over 9 timepoints collected between 0 and 24 hours of incubation by liquid-chromatography-coupled mass spectrometry (LC–MS). Particulars: 2 µM.

The conditions of data set [5]: human gut metagenome, 24 h, 2 µM. This is another data set of the same source.
Data set [6] is described as follows: The drug is tested on WLS-082 corresponding to human gut metagenome with ENA study accession number: PRJEB37062 and ENA sample accession number: ERS12561751 for biotransformation under anaerobic condition. The drug concentrations were measured over 9 timepoints collected between 0 and 24 hours of incubation by liquid-chromatography-coupled mass spectrometry (LC–MS). Particulars: 2 µM.

A short description of data set [7]: The drug is tested on WLS-350 corresponding to human gut metagenome with ENA study accession number: PRJEB37062 and ENA sample accession number: ERS12561789 for biotransformation under anaerobic condition. The drug concentrations were measured over 9 timepoints collected between 0 and 24 hours of incubation by liquid-chromatography-coupled mass spectrometry (LC–MS). As to conditions: 2 µM.

Data set [8] can be described thus: The drug is tested on WLS-010 corresponding to human gut metagenome with ENA study accession number: PRJEB37062 and ENA sample accession number: ERS12561743 for biotransformation under anaerobic condition. The drug concentrations were measured over 9 timepoints collected between 0 and 24 hours of incubation by liquid-chromatography-coupled mass spectrometry (LC–MS). As to conditions: 2 µM.

The nature of data set [9]: The drug is tested on WLS-007 corresponding to human gut metagenome with ENA study accession number: PRJEB37062 and ENA sample accession number: ERS12561742 for biotransformation under anaerobic condition. The drug concentrations were measured over 9 timepoints collected between 0 and 24 hours of incubation by liquid-chromatography-coupled mass spectrometry (LC–MS). Particulars: 2 µM.

The conditions of data set [10]: human gut metagenome, 24 h, 2 µM. The source holds these as a separate data set.
The conditions of data set [11]: human gut metagenome, 24 h, 2 µM. This is another data set of the same source.
For data set [12] the following is noted: human gut metagenome, 24 h, 2 µM. The source holds these as a separate data set.
The nature of data set [13]: The drug is tested on Z-006 corresponding to mouse gut metagenome with ENA study accession number: PRJEB37062 and ENA sample accession number: ERS12561806 for biotransformation under anaerobic condition. The drug concentrations were measured over 9 timepoints collected between 0 and 24 hours of incubation by liquid-chromatography-coupled mass spectrometry (LC–MS). Particulars: 2 µM.

The conditions of data set [14]: human gut metagenome, 24 h, 2 µM. This is another data set of the same source.
Data set [15] can be described thus: The drug is tested on Z-011 corresponding to mouse gut metagenome with ENA study accession number: PRJEB37062 and ENA sample accession number: ERS12561811 for biotransformation under anaerobic condition. The drug concentrations were measured over 9 timepoints collected between 0 and 24 hours of incubation by liquid-chromatography-coupled mass spectrometry (LC–MS). Particulars: 2 µM.

The conditions of data set [16]: human gut metagenome, 24 h, 2 µM. This is another data set of the same source.
For data set [17] the following is noted: human gut metagenome, 24 h, 2 µM. The source holds these as a separate data set.
A short description of data set [18]: The drug is tested on WLS-006 corresponding to human gut metagenome with ENA study accession number: PRJEB37062 and ENA sample accession number: ERS12561741 for biotransformation under anaerobic condition. The drug concentrations were measured over 9 timepoints collected between 0 and 24 hours of incubation by liquid-chromatography-coupled mass spectrometry (LC–MS). Particulars: 2 µM.

The nature of data set [19]: The drug is tested on WLS-052 corresponding to human gut metagenome with ENA study accession number: PRJEB37062 and ENA sample accession number: ERS12561747 for biotransformation under anaerobic condition. The drug concentrations were measured over 9 timepoints collected between 0 and 24 hours of incubation by liquid-chromatography-coupled mass spectrometry (LC–MS). As to conditions: 2 µM.

The conditions of data set [20]: human gut metagenome, 24 h, 2 µM. The source holds these as a separate data set.
Also: call rule not given here.

Consider `OCCN(CCO)c1nc(N2CCCCC2)c2nc(N(CCO)CCO)nc(N3CCCCC3)c2n1` [DIPYRIDAMOLE], for which the “Bacterial Biotransformation” value is recorded as “Compound metabolized” in data set [1]; “Compound NOT metabolized” in [2]; “Compound metabolized” in [3]; “Compound NOT metabolized” in data set [4]; “Compound metabolized” in data set [5]; “Compound NOT metabolized” in data set [6]. Further, the “Bacterial Biotransformation” value is on record as “Compound metabolized” in data set [7]; “Compound metabolized” in [8]; “Compound metabolized” in data set [9]; “Compound NOT metabolized” in data set [10]; “Compound metabolized” in data set [11]; “Compound NOT metabolized” in data set [12]. Moreover, the “Bacterial Biotransformation” value in data set [13], in data set [14], in [15], in [16], in data set [17] and in data set [18] was “Compound NOT metabolized” in each case. Also, the “Bacterial Biotransformation” value in data set [19] and in data set [20] was “Compound metabolized” each time.

With `CCN(CC)CCNC(=O)c1ccc(NC(C)=O)cc1` [ACECAINIDE], the “Bacterial Biotransformation” value in [1] is listed as “Compound NOT metabolized”; in [2] it was “Compound NOT metabolized”; in [3], “Compound NOT metabolized”; in data set [4], “Compound NOT metabolized”; in data set [5], “Compound metabolized”; in [6] it was “Compound NOT metabolized”. The “Bacterial Biotransformation” value in [7], in data set [8], in [9], in [10], in data set [11] and in data set [12] was “Compound NOT metabolized” in each case. Further, the “Bacterial Biotransformation” value in data set [13], in data set [14], in [15], in data set [16], in [17] and in data set [18] was “Compound NOT metabolized” throughout. In addition, the “Bacterial Biotransformation” value in data set [19] and in data set [20] was “Compound NOT metabolized” in each case.

On to `Br.CN1CCC[C@@H]1Cc1c[nH]c2ccc(CCS(=O)(=O)c3ccccc3)cc12` [ELETRIPTAN HYDROBROMIDE], for which the “Bacterial Biotransformation” value in data set [1] was “Compound NOT metabolized”; in data set [2], “Compound NOT metabolized”; in [3], “Compound NOT metabolized”; in data set [4], “Compound NOT metabolized”; in [5], “Compound metabolized”; in data set [6], “Compound NOT metabolized”. Further, the “Bacterial Biotransformation” value is “Compound NOT metabolized” in data set [7]; “Compound metabolized” in data set [8]; “Compound metabolized” in [9]; “Compound NOT metabolized” in [10]; “Compound metabolized” in data set [11]; “Compound metabolized” in [12]. In addition, the “Bacterial Biotransformation” value in [13], in data set [14], in data set [15], in data set [16], in [17] and in [18] was “Compound NOT metabolized” throughout. The “Bacterial Biotransformation” value in data set [19] and in data set [20] was “Compound NOT metabolized” each time.

With `c1ccc2[nH]c(-c3cscn3)nc2c1` [THIABENDAZOLE], the “Bacterial Biotransformation” value is listed as “Compound NOT metabolized” in data set [1]; “Compound NOT metabolized” in data set [2]; “Compound NOT metabolized” in data set [3]; “Compound NOT metabolized” in [4]; “Compound metabolized” in data set [5]; “Compound NOT metabolized” in data set [6]. Moreover, the “Bacterial Biotransformation” value in data set [7], in data set [8], in data set [9], in [10], in data set [11] and in data set [12] was “Compound NOT metabolized” each time. The “Bacterial Biotransformation” value in data set [13], in data set [14], in data set [15], in data set [16], in data set [17] and in [18] was “Compound NOT metabolized” in each case. In addition, the “Bacterial Biotransformation” value in data set [19] and in [20] was “Compound NOT metabolized” in each case.

Take `CCOc1cc(CC(=O)N[C@@H](CC(C)C)c2ccccc2N2CCCCC2)ccc1C(=O)O` [REPAGLINIDE]: the “Bacterial Biotransformation” value was “Compound metabolized” in data set [1]; “Compound NOT metabolized” in data set [2]; “Compound metabolized” in data set [3]; “Compound NOT metabolized” in data set [4]; “Compound NOT metabolized” in data set [5]; “Compound metabolized” in data set [6]. Moreover, the “Bacterial Biotransformation” value is on record as “Compound metabolized” in [7]; “Compound metabolized” in [8]; “Compound metabolized” in [9]; “Compound NOT metabolized” in [10]; “Compound metabolized” in data set [11]; “Compound metabolized” in [12]. For the same molecule, the “Bacterial Biotransformation” value in data set [13] is given as “Compound metabolized”; in [14], “Compound NOT metabolized”; in [15], “Compound NOT metabolized”; in data set [16], “Compound metabolized”; in data set [17], “Compound metabolized”; in [18], “Compound metabolized”. Further, the “Bacterial Biotransformation” value in [19] is recorded as “Compound metabolized”; in [20], “Compound NOT metabolized”.

As to `CCCN(CCC)CCc1cccc2c1CC(=O)N2` [ROPINIROLE], the “Bacterial Biotransformation” value in data set [1] is given as “Compound NOT metabolized”; in [2], “Compound NOT metabolized”; in data set [3], “Compound NOT metabolized”; in data set [4], “Compound NOT metabolized”; in data set [5] it was “Compound metabolized”; in data set [6], “Compound NOT metabolized”. For the same molecule, the “Bacterial Biotransformation” value in data set [7], in data set [8], in data set [9], in [10], in [11] and in data set [12] was “Compound NOT metabolized” in each case. The “Bacterial Biotransformation” value in data set [13], in data set [14], in data set [15], in [16], in data set [17] and in [18] was “Compound NOT metabolized” each time. For the same molecule, the “Bacterial Biotransformation” value in data set [19] and in data set [20] was “Compound NOT metabolized” each time.
